Experimental data as given in patent publication US10705101B2, “Determination of the unbound free fatty acid profiles in biological and industrial specimens” (priority 2013, dated 2020).

Target: human serum albumin (Homo sapiens, UniProt P02768)
Experiment: FFAu profile in artificial plasma (FFA mixed with fatty acid free human serum albumin)
Format: binding
Conditions: artificial plasma: defined FFA mix with fatty acid free HSA in Measuring buffer
Text: To determine if the low unbound POA levels were due to an interaction with some component of the blood sample matrix an artificial plasma was generated by mixing well defined amounts of the FFA used in Table 4 to fatty acid free human serum albumin in Measuring buffer.

Sequence of human serum albumin (P02768 25-609): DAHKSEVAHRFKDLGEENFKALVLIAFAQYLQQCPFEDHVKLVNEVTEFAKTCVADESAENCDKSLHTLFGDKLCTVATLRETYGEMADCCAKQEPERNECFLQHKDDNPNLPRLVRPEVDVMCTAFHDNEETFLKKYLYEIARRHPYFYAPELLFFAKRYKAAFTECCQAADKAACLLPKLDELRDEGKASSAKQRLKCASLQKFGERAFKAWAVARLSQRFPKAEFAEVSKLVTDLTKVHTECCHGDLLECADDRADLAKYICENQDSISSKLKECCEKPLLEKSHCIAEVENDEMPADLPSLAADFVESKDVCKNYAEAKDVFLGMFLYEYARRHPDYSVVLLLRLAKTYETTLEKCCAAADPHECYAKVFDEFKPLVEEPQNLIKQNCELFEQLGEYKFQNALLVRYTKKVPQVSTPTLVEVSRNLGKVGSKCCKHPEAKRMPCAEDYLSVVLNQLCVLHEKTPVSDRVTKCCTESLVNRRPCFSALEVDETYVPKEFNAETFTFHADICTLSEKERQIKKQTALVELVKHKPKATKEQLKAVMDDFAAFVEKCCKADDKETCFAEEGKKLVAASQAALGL

CCCCCC/C=C\CCCCCCCC(=O)O [POA, palmitoleate]
% FFAu: 16.9%
